Assay: RP, Thermo Scientific Acclaim RSLC 120 C18, 100 × 2.1 mm, 2.2 µm, 30 °C, 0.2 mL/min, estimated dead time 1.1 min; A: 90% water + 10% methanol + 0.01% formic acid + 5 mM ammonium formate, pH 3.61; B: methanol + 0.01% formic acid + 5 mM ammonium formate, pH 3.61; gradient (min/%B) 0/1 1/1 2/39 13/99.9 15/99.9 15.1/1 20.1/1
Settings: stereoisomer not certain

Row | SMILES | LC retention time
1 | CCCCCC(=O)c1ccc(O)cc1O [Caproylresorcinol] | 10.4 min
2 | NCCCCC(NC(CCc1ccccc1)C(=O)O)C(=O)N1CCCC1C(=O)O (stereo not drawn) [Lisinopril] | 3.98 min
3 | CCC(=O)OC(Cc1ccccc1)(c1ccccc1)C(C)CNC (stereo not drawn) [Nordextropropoxyphene] | 7.84 min
4 | C1=Cc2ccccc2Nc2ccccc21 [Iminostilbene] | 10.1 min
5 | O=C(CCCN1CCC(O)(c2cccc(C(F)(F)F)c2)CC1)c1ccc(F)cc1 [Trifluperidol] | 7.42 min
6 | C#CC1(O)C=CC2C3CCC4=CC(=O)CCC4C3CCC21CC (stereo not drawn) [Gestoden] | 9.46 min
7 | COc1cccc2c(C(=O)NC3C4(C)CCC(C4)C3(C)C)cn(CCN3CCOCC3)c12 (stereo not drawn) [MN-25] | 11.7 min
8 | Oc1ccc2c3c1OC1C(O)C=CC4C(C2)NCCC341 (stereo not drawn) [Morphine-Nor] | 2.71 min
9 | CC(C)NC(=O)c1ccccc1O [Salicylamide-N-Isopropyl] | 7.14 min
10 | CN1CCN(C=C2N=C3CN=C(c4ccccc4Cl)c4cc([N+](=O)[O-])ccc4N3C2=O)CC1 [Loprazolam] | 6.95 min
11 | CN1CCN(CCCN2c3ccccc3Sc3ccc(Cl)cc32)CC1 [Prochlorperazine] | 9.89 min
12 | CC(N)Cc1cccc(F)c1 (stereo not drawn) [Amphetamine (3-F-)] | 4.39 min
13 | CNCCCC1c2ccccc2C=Cc2ccccc21 [Protriptyline] | 7.99 min
14 | COc1cccc(C(=O)NN(C(=O)c2cc(C)cc(C)c2)C(C)(C)C)c1C [Methoxyfenozide] | 9.56 min
15 | CN(C)CCCC1(c2ccc(F)cc2)OCc2cc(C(=O)O)ccc21 (stereo not drawn) [Citalopram carboxylic acid] | 5.83 min
16 | Oc1ccc2c3c1OC1C(O)CCC4(O)C(C2)N(CC2CCC2)CCC314 (stereo not drawn) [Nalbuphine] | 4.17 min
17 | CCCC1CC(C(=O)NC(C(C)Cl)C2OC(SC)C(O)C(O)C2O)N(C)C1 (stereo not drawn) [Clindamycin] | 6.92 min
18 | CC(C)NCC(O)COc1ccc(CC(N)=O)cc1 (stereo not drawn) [Atenolol] | 3.09 min
19 | NC(=O)N=C1SCCN1Cc1ccc(Cl)nc1 [Thiacloprid-amide] | 4.83 min
20 | C[Si](Cn1cncn1)(c1ccc(F)cc1)c1ccc(F)cc1 [Flusilazole] | 10.5 min
21 | COc1cc(NC(C)CCCN)c2ncccc2c1 (stereo not drawn) [Primaquine] | 6.82 min
22 | CCOC(=O)N1CCC(=C2c3ccc(Cl)cc3CCc3cccnc32)CC1 [Loratadine] | 11.5 min

Row | SMILES | LC retention time
23 | CC(C)c1nc(N(C)S(C)(=O)=O)nc(-c2ccc(F)cc2)c1C=CC(O)CC(O)CC(=O)O (stereo not drawn) [Rosuvastatin] | 8.2 min
24 | COc1ccc2[nH]cc(CCNC(C)=O)c2c1 [Melatonin] | 5.36 min
25 | CCCCNC(=O)NS(=O)(=O)c1ccc(C)cc1 [Tolbutamide] | 7.68 min
26 | CCOP(=S)(OCC)Oc1cc(Cl)c(Br)cc1Cl [Bromophos-ethyl] | 13.5 min
27 | CCOc1ccc2c(c1)C(C)=CC(C)(C)N2 [Ethoxyquin] | 10.1 min
28 | COC(=O)C1=CCCN(C)C1 [Arecoline] | 1.74 min
29 | NC(=O)c1c(Cl)c(Cl)cc(C(=O)O)c1Cl | 3.88 min
30 | O=[N+]([O-])c1ccc(Oc2ccc(Cl)cc2Cl)cc1 [Nitrofen] | 12.1 min
31 | CN=C1CN(O)C(c2ccccc2)=c2cc(Cl)ccc2=N1 [Chlordiazepoxide] | 8.79 min
32 | CC(C)C(C(=O)OC(C#N)c1cccc(Oc2ccccc2)c1)c1ccc(OC(F)F)cc1 (stereo not drawn) [Flucythrinate] | 12.7 min
33 | OCC(O)CN1CCN(c2ccccc2)CC1 (stereo not drawn) [Dropropizine] | 3.79 min
34 | CCc1cccc(C)c1NC(=O)CS(=O)(=O)O | 5.24 min
35 | CN1C(=O)CCS(=O)(=O)C1c1ccc(Cl)cc1 (stereo not drawn) [Chlormezanone] | 5.94 min
36 | Cc1cccc(C(=O)O)c1N(Cn1cccn1)C(=O)C(=O)O [Metazachlor BH479-12] | 4.42 min
37 | CCCCCc1cc(O)c2c(c1)OC(C)(C)c1ccc(C)cc1-2 [Cannabinol] | 13.7 min
38 | CC(C)N(CCc1c[nH]c2ccccc12)C(C)C [DiPT] | 4.87 min
39 | O=C(O)CCCn1cc(C(=O)c2cccc3ccccc23)c2ccccc21 [JWH-073-M-N-Butanoic acid] | 9.33 min
40 | CCC(c1cccc(O)c1)C(C)CNC (stereo not drawn) [Tapentadol-N-Desmethyl] | 5.14 min
41 | FC(F)C(F)(F)OCC(Cn1cncn1)c1ccc(Cl)cc1Cl (stereo not drawn) [Tetraconazole] | 10.1 min
42 | CC12CCC(=O)C=C1C(O)CC1C2C(O)CC2(C)C1CCC2(O)C(=O)CO (stereo not drawn) [6-beta-Hydroxycortisol] | 4.42 min
43 | OCCN1CCN(CCC=C2c3ccccc3Sc3ccc(C(F)(F)F)cc32)CC1 [Flupentixol] | 10.2 min
